{"source": "PubChem BioAssay AID2060502", "about": "(Molecular Pharmacology Branch, DTP, NCI, 2025);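 note: spheroids exposed to agents for seven days before readout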;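 for viability, T/C: percent of vehicle control viability where 100% = DMSO wells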", "test_system": "885724-159-R-J1-PDC complex spheroid viability", "assay": "Anticancer human tumor 885724-159-R-J1-PDC patient-derived pancreatic adenocarcinoma cell line growth inhibition [GQUAD]", "conditions": "for IC50: curve of first compound; for viability, T/C: stronger effect = lower value", "method_in_brief": "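Viability of tumor cells grown as complex spheroids with endothelial and stromal cells, exposed to drug combinations. Top concentration at or near clinical Cmax (else 10 microM), diluted in half-log increments.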"}
{"smiles": "C=CC(=O)N1CCN(c2nc(=O)n(-c3c(C)ccnc3C(C)C)c3nc(-c4c(O)cccc4F)c(F)cc23)C(C)C1", "note": "(configuration not stated) + Cc1cnc(CNC(=O)c2c(=O)c3ccc(N4CCCN(C)CC4)nc3n3c2sc2ccccc23)cn1", "values": [{"measurement": "IC50", "setting": "second compound 0.0316 µM", "value": "> 10", "unit": "µM"}, {"measurement": "IC50", "setting": "second compound 0.1 µM", "value": "> 10", "unit": "µM"}, {"measurement": "IC50", "setting": "second compound 0.316 µM", "value": "> 10", "unit": "µM"}, {"measurement": "IC50", "setting": "second compound 1 µM", "value": "> 10", "unit": "µM"}, {"measurement": "IC50", "setting": "second compound 3.16 µM", "value": "> 10", "unit": "µM"}, {"measurement": "IC50", "setting": "second compound 10 µM", "value": "> 10", "unit": "µM"}, {"measurement": "viability, T/C", "setting": "second compound 0.0316 µM, first compound 0.0316 µM", "value": 107, "unit": "%"}, {"measurement": "viability, T/C", "setting": "second compound 0.0316 µM, first compound 0.1 µM", "value": 114, "unit": "%"}, {"measurement": "viability, T/C", "setting": "second compound 0.0316 µM, first compound 0.316 µM", "value": 115, "unit": "%"}, {"measurement": "viability, T/C", "setting": "second compound 0.0316 µM, first compound 1 µM", "value": 107, "unit": "%"}, {"measurement": "viability, T/C", "setting": "second compound 0.0316 µM, first compound 3.16 µM", "value": 100, "unit": "%"}, {"measurement": "viability, T/C", "setting": "second compound 0.0316 µM, first compound 10 µM", "value": 91.5, "unit": "%"}, {"measurement": "viability, T/C", "setting": "second compound 0.1 µM, first compound 0.0316 µM", "value": 101, "unit": "%"}, {"measurement": "viability, T/C", "setting": "second compound 0.1 µM, first compound 0.1 µM", "value": 102, "unit": "%"}, {"measurement": "viability, T/C", "setting": "second compound 0.1 µM, first compound 0.316 µM", "value": 107, "unit": "%"}, {"measurement": "viability, T/C", "setting": "second compound 0.1 µM, first compound 1 µM", "value": 124, "unit": "%"}, {"measurement": "viability, T/C", "setting": "second compound 0.1 µM, first compound 3.16 µM", "value": 125, "unit": "%"}, {"measurement": "viability, T/C", "setting": "second compound 0.1 µM, first compound 10 µM", "value": 111, "unit": "%"}, {"measurement": "viability, T/C", "setting": "second compound 0.316 µM, first compound 0.0316 µM", "value": 103, "unit": "%"}, {"measurement": "viability, T/C", "setting": "second compound 0.316 µM, first compound 0.1 µM", "value": 106, "unit": "%"}, {"measurement": "viability, T/C", "setting": "second compound 0.316 µM, first compound 0.316 µM", "value": 110, "unit": "%"}, {"measurement": "viability, T/C", "setting": "second compound 0.316 µM, first compound 1 µM", "value": 89.2, "unit": "%"}, {"measurement": "viability, T/C", "setting": "second compound 0.316 µM, first compound 3.16 µM", "value": 124, "unit": "%"}, {"measurement": "viability, T/C", "setting": "second compound 0.316 µM, first compound 10 µM", "value": 96, "unit": "%"}, {"measurement": "viability, T/C", "setting": "second compound 1 µM, first compound 0.0316 µM", "value": 86.5, "unit": "%"}, {"measurement": "viability, T/C", "setting": "second compound 1 µM, first compound 0.1 µM", "value": 91, "unit": "%"}, {"measurement": "viability, T/C", "setting": "second compound 1 µM, first compound 0.316 µM", "value": 88.2, "unit": "%"}, {"measurement": "viability, T/C", "setting": "second compound 1 µM, first compound 1 µM", "value": 91.6, "unit": "%"}, {"measurement": "viability, T/C", "setting": "second compound 1 µM, first compound 3.16 µM", "value": 100, "unit": "%"}, {"measurement": "viability, T/C", "setting": "second compound 1 µM, first compound 10 µM", "value": 81, "unit": "%"}, {"measurement": "viability, T/C", "setting": "second compound 3.16 µM, first compound 0.0316 µM", "value": 74.5, "unit": "%"}, {"measurement": "viability, T/C", "setting": "second compound 3.16 µM, first compound 0.1 µM", "value": 84, "unit": "%"}, {"measurement": "viability, T/C", "setting": "second compound 3.16 µM, first compound 0.316 µM", "value": 89.3, "unit": "%"}, {"measurement": "viability, T/C", "setting": "second compound 3.16 µM, first compound 1 µM", "value": 81.4, "unit": "%"}, {"measurement": "viability, T/C", "setting": "second compound 3.16 µM, first compound 3.16 µM", "value": 89.4, "unit": "%"}, {"measurement": "viability, T/C", "setting": "second compound 3.16 µM, first compound 10 µM", "value": 76.8, "unit": "%"}, {"measurement": "viability, T/C", "setting": "second compound 10 µM, first compound 0.0316 µM", "value": 74.4, "unit": "%"}, {"measurement": "viability, T/C", "setting": "second compound 10 µM, first compound 0.1 µM", "value": 74, "unit": "%"}, {"measurement": "viability, T/C", "setting": "second compound 10 µM, first compound 0.316 µM", "value": 74.7, "unit": "%"}, {"measurement": "viability, T/C", "setting": "second compound 10 µM, first compound 1 µM", "value": 83.4, "unit": "%"}, {"measurement": "viability, T/C", "setting": "second compound 10 µM, first compound 3.16 µM", "value": 78, "unit": "%"}, {"measurement": "viability, T/C", "setting": "second compound 10 µM, first compound 10 µM", "value": 68.5, "unit": "%"}]}
